Test results reported in ChEMBL document CHEMBL5661943, “ASAP - In vitro antiviral effect” (2024).
Several values for one entry are separate records, joined by “and”; a condition that tells them apart may be missing. Equal values may be shown once.

Experiments:
dengue virus type 2 = experiment: Functional assay to measure dose dependent changes in antiviral-drug inhibitory efficacy against Dengue virus type 2 New Guinea C in Vero E6 miRFP670 cells (cotreated with P-gp inhibitor, CP100356). Cells are treated with antiviral candidates that are serially diluted, following infection, cells are fixed. EC50 is reported via analysis of fluorescence intensity using high-content imager. The …; format: organism-based, Chlorocebus sabaeus, Vero C1008; settings: for EC90: P-gp concentration 500 nM, P-gp inhibitor CP100356
Zika virus = experiment: Functional CPE-based assay to measure dose dependent changes in antiviral-drug inhibitory efficacy against Zika virus MR766 in Vero E6 miRFP670 cells (cotreated with P-gp inhibitor, CP100356). Cells are treated with antiviral candidates that are serially diluted. EC50 is reported via analysis of MTS assay as a readout of CPE. The assay has been performed by KU Leuven.; format: organism-based, Chlorocebus sabaeus, Vero C1008; settings: for EC90: P-gp concentration 500 nM, P-gp inhibitor CP100356

## O=C(Nc1ccc2c(c1)CNC2)c1cc(F)cc2[nH]c(-c3cnc(C4CC4)o3)nc12
Dengue virus type 2; Baseline response 0 %, EC90 CI (lower) 0.872 uM, EC90 CI (upper) 3.596 uM, Hill slope -8.389, Maximum measured 102.302 %, Maximum response 100 %, Minimum measured 7.049 %, R squared 0.894
  EC90: 2.99 µM
Dengue virus type 2; Dengue virus, Vero C1008
  EC50: 2.33 µM
Dengue virus type 2; Dengue virus, Vero C1008, Baseline response 0 %, EC90 CI (lower) 0.484 uM, EC90 CI (upper) 7.419 uM, Hill slope -10.584, Maximum measured 98.644 %, Maximum response 100 %, Minimum measured 4.286 %, R squared 0.843
  EC90: 2.87 µM
Dengue virus type 2; vero c1008
  EC50: 2.3 µM
Zika virus; Baseline response 0 %, Hill slope 1.364, Maximum measured 18.791 %, Maximum response 100 %, Minimum measured -1.808 %, R squared 0.107
  EC90: > 50 µM
Zika virus; Zika virus, Vero C1008
  EC50: > 50 µM
Zika virus; Zika virus, Vero C1008, Baseline response 0 %, Hill slope 2.704, Maximum measured 11.553 %, Maximum response 100 %, Minimum measured -5.923 %, R squared 0.137
  EC90: > 50 µM

## O=C(Nc1ccc2c(c1)CNC2)c1cc(Cl)cc2cn[nH]c12
Dengue virus type 2; Dengue virus, Vero C1008
  EC50: > 50 µM
Dengue virus type 2; Dengue virus, Vero C1008, Maximum measured 130.797 %, Minimum measured 96.2 %
  EC90: > 50 µM
Zika virus; Zika virus, Vero C1008
  EC50: 3.01 µM
Zika virus; Zika virus, Vero C1008, Baseline response 0 %, EC90 CI (lower) 2.341 uM, EC90 CI (upper) 14.506 uM, Hill slope 3.321, Maximum measured 138.559 %, Maximum response 100 %, Minimum measured 2.928 %, R squared 0.845
  EC90: 5.83 µM

## O=C(Nc1ccc2c(c1)CNC2)c1cc(Br)cc2[nH]c(=O)[nH]c12
Dengue virus type 2; Dengue virus, Vero C1008
  EC50: > 50 µM
Dengue virus type 2; Dengue virus, Vero C1008, Maximum measured 135.314 %, Minimum measured 105.633 %
  EC90: > 50 µM
Zika virus; Zika virus, Vero C1008
  EC50: > 50 µM
Zika virus; Zika virus, Vero C1008, Baseline response 0 %, Hill slope 1.27, Maximum measured 26.011 %, Maximum response 100 %, Minimum measured -2.243 %, R squared 0.854
  EC90: > 50 µM

## CNC(=O)[C@H](Nc1ccc2c(c1)CNC2)c1cc(Cl)cc2[nH]c(-c3ccccc3)nc12
Dengue virus type 2; Dengue virus, Vero C1008
  EC50: > 25 µM
Dengue virus type 2; Dengue virus, Vero C1008, Maximum measured 190.221 %, Minimum measured 63.084 %
  EC90: > 25 µM
Dengue virus type 2; Dengue virus, Vero C1008, Baseline response 0 %, Hill slope -0.424, Maximum measured 89.369 %, Maximum response 100 %, Minimum measured 51.028 %, R squared 0.334
  EC90: > 25 µM
Zika virus; Baseline response 0 %, EC90 CI (lower) 1.657 uM, EC90 CI (upper) 9.069 uM, Hill slope 2.736, Maximum measured 134.068 %, Maximum response 100 %, Minimum measured 11.054 %, R squared 0.856
  EC90: 3.88 µM
Zika virus; Zika virus, Vero C1008
  EC50: 1.54 µM
Zika virus; Zika virus, Vero C1008, Baseline response 0 %, EC90 CI (lower) 2.457 uM, EC90 CI (upper) 4.2 uM, Hill slope 2.999, Maximum measured 107.773 %, Maximum response 100 %, Minimum measured 2.918 %, R squared 0.982
  EC90: 3.21 µM
Zika virus; vero c1008
  EC50: 1.74 µM

## N#Cc1ccc(-c2nc3c(C(=O)Nc4ccc5c(c4)CNC5)cc(F)cc3[nH]2)cc1
Dengue virus type 2; Dengue virus, Vero C1008, Maximum measured 143.39 %, Minimum measured 94.915 %
  EC90: > 50 µM
Dengue virus type 2; Dengue virus, Vero C1008, Maximum measured 155.678 %, Minimum measured 70.057 %
  EC90: > 6.25 µM
Dengue virus type 2; vero c1008
  EC50: > 50 µM
Zika virus; Baseline response 0 %, Hill slope 0.2, Maximum measured 29.739 %, Maximum response 100 %, Minimum measured 4.071 %, R squared 0.256
  EC90: > 50 µM
Zika virus; Zika virus, Vero C1008
  EC50: > 50 µM
Zika virus; Zika virus, Vero C1008, Baseline response 0 %, Hill slope 0.539, Maximum measured 18.428 %, Maximum response 100 %, Minimum measured 0.213 %, R squared 0.888
  EC90: > 50 µM

## Cc1nc2c(C(=O)Nc3ccc4c(c3)CNC4)cc(Cl)cc2[nH]1
Dengue virus type 2; Dengue virus, Vero C1008
  EC50: > 6.25 µM
Dengue virus type 2; Dengue virus, Vero C1008, Baseline response 0 %, Hill slope -1.031, Maximum measured 89.345 %, Maximum response 100 %, Minimum measured 48.357 %, R squared 0.44
  EC90: > 6.25 µM
Zika virus; Zika virus, Vero C1008
  EC50: > 50 µM
Zika virus; Zika virus, Vero C1008, Maximum measured 8.786 %, Minimum measured -9.149 %
  EC90: > 50 µM

## O=C(NC1CCOCC1)[C@H](Nc1ccc2c(c1)CNC2)c1cc(Cl)cc2[nH]ncc12
Dengue virus type 2; Dengue virus, Vero C1008
  EC50: > 50 µM
Dengue virus type 2; Dengue virus, Vero C1008, Maximum measured 134.779 %, Minimum measured 105.958 %
  EC90: > 50 µM
Zika virus; Zika virus, Vero C1008
  EC50: 16.8 µM
Zika virus; Zika virus, Vero C1008, Baseline response 0 %, Hill slope 1.579, Maximum measured 82.863 %, Maximum response 100 %, Minimum measured -0.215 %, R squared 0.968
  EC90: > 50 µM

## O=C(Nc1ccc2c(c1)CNC2)c1cc(F)c2[nH]ccc2c1
Dengue virus type 2; Dengue virus, Vero C1008
  EC50: < 0.391 µM
Dengue virus type 2; Dengue virus, Vero C1008, Baseline response 0 %, Hill slope 3.427, Maximum measured 127.165 %, Maximum response 100 %, Minimum measured 69.586 %, R squared 0.325
  EC90: < 0.391 µM
Zika virus; Zika virus, Vero C1008
  EC50: 24.5 µM
Zika virus; Zika virus, Vero C1008, Baseline response 0 %, Hill slope 0.879, Maximum measured 122.421 %, Maximum response 100 %, Minimum measured -4.109 %, R squared 0.266
  EC90: > 50 µM

## O=C(Nc1ccc2c(c1)CNC2)c1cc(F)cc2c1CCC2
Dengue virus type 2; Dengue virus, Vero C1008
  EC50: > 6.25 µM
Dengue virus type 2; Dengue virus, Vero C1008, Baseline response 0 %, Hill slope -2.434, Maximum measured 106.021 %, Maximum response 100 %, Minimum measured 60.209 %, R squared 0.87
  EC90: > 6.25 µM
Zika virus; Zika virus, Vero C1008
  EC50: 1.81 µM
Zika virus; Zika virus, Vero C1008, Baseline response 0 %, EC90 CI (lower) 1.329 uM, EC90 CI (upper) 15.086 uM, Hill slope 2.425, Maximum measured 145.547 %, Maximum response 100 %, Minimum measured 22.113 %, R squared 0.732
  EC90: 4.48 µM

## Cc1cccc(-c2nc3c(C(=O)Nc4ccc5c(c4)CNC5)cc(Cl)cc3[nH]2)c1O
Dengue virus type 2; Dengue virus, Vero C1008
  EC50: 46.9 µM
Dengue virus type 2; Dengue virus, Vero C1008, Maximum measured 146.036 %, Minimum measured 86.561 %
  EC90: > 50 µM
Dengue virus type 2; Dengue virus, Vero C1008, Baseline response 0 %, Hill slope -5.285, Maximum measured 123.385 %, Maximum response 100 %, Minimum measured 41.68 %, R squared 0.576
  EC90: > 50 µM
Dengue virus type 2; vero c1008
  EC50: > 50 µM
Zika virus; Zika virus, Vero C1008
  EC50: > 50 µM
Zika virus; Zika virus, Vero C1008, Maximum measured 4.83 %, Minimum measured -9.413 %
  EC90: > 50 µM
Zika virus; Zika virus, Vero C1008, Baseline response 0 %, Hill slope 1.997, Maximum measured 9.723 %, Maximum response 100 %, Minimum measured -5.385 %, R squared 0.475
  EC90: > 50 µM

## CC(C)CNC(=O)[C@H](Nc1ccc2c(c1)CNC2)c1cc(Cl)cc2[nH]ncc12
Dengue virus type 2; Dengue virus, Vero C1008
  EC50: > 50 µM
Dengue virus type 2; Dengue virus, Vero C1008, Maximum measured 133.558 %, Minimum measured 96.187 %
  EC90: > 50 µM
Zika virus; Zika virus, Vero C1008
  EC50: 14.2 µM
Zika virus; Zika virus, Vero C1008, Baseline response 0 %, EC90 CI (lower) 23.751 uM, EC90 CI (upper) 85.548 uM, Hill slope 1.9, Maximum measured 81.211 %, Maximum response 100 %, Minimum measured -3.072 %, R squared 0.886
  EC90: 45.1 µM

## CCOCCNC(=O)[C@H](Nc1ccc2c(c1)CNC2)c1cc(Cl)cc2[nH]ncc12
Dengue virus type 2; Dengue virus, Vero C1008
  EC50: > 50 µM
Dengue virus type 2; Dengue virus, Vero C1008, Maximum measured 134.278 %, Minimum measured 95.519 %
  EC90: > 50 µM
Zika virus; Zika virus, Vero C1008
  EC50: 39.6 µM
Zika virus; Zika virus, Vero C1008, Baseline response 0 %, Hill slope 1.597, Maximum measured 58.987 %, Maximum response 100 %, Minimum measured -2.742 %, R squared 0.989
  EC90: > 50 µM

## O=C(Nc1ccc2c(c1)CNC2)c1cc(F)cc2nn(-c3ccccn3)nc12
Dengue virus type 2; Baseline response 0 %, EC90 CI (lower) 0.77 uM, EC90 CI (upper) 2.483 uM, Hill slope -4.828, Maximum measured 102.327 %, Maximum response 100 %, Minimum measured 2.546 %, R squared 0.795
  EC90: 3.44 µM
Dengue virus type 2; Dengue virus, Vero C1008, Baseline response 0 %, EC90 CI (lower) 0.427 uM, EC90 CI (upper) 5.546 uM, Hill slope -1.321, Maximum measured 90.171 %, Maximum response 100 %, Minimum measured 71.834 %, R squared 0.697
  EC90: > 6.25 µM
Dengue virus type 2; vero c1008
  EC50: > 6.25 µM and 2.18 µM
Zika virus; Baseline response 0 %, Hill slope 0.342, Maximum measured 8.101 %, Maximum response 100 %, Minimum measured -1.287 %, R squared 0.284
  EC90: > 50 µM
Zika virus; Baseline response 0 %, Hill slope -0.391, Maximum measured 8.995 %, Maximum response 100 %, Minimum measured 1.943 %, R squared 0.39
  EC90: > 3.12 µM
Zika virus; vero c1008
  EC50: > 50 µM

## CCCNC(=O)[C@H](Nc1ccc2c(c1)CNC2)c1cc(Cl)cc2[nH]ncc12
Dengue virus type 2; Dengue virus, Vero C1008
  EC50: > 50 µM
Dengue virus type 2; Dengue virus, Vero C1008, Maximum measured 131.319 %, Minimum measured 89.09 %
  EC90: > 50 µM
Zika virus; Zika virus, Vero C1008
  EC50: 6.6 µM
Zika virus; Zika virus, Vero C1008, Baseline response 0 %, EC90 CI (lower) 8.551 uM, EC90 CI (upper) 22.021 uM, Hill slope 3.004, Maximum measured 121.473 %, Maximum response 100 %, Minimum measured -0.697 %, R squared 0.949
  EC90: 13.7 µM

## O=C(Nc1ccc2c(c1)CNC2)c1cc(F)cc2[nH]c(-c3ccccc3)nc12
Dengue virus type 2; Dengue virus, Vero C1008, Maximum measured 101.649 %, Minimum measured 101.649 %
  EC90: > 0.391 µM
Dengue virus type 2; Dengue virus, Vero C1008, Maximum measured 246.46 %, Minimum measured 208.361 %
  EC90: > 6.25 µM
Dengue virus type 2; vero c1008
  EC50: > 6.25 µM
Zika virus; Zika virus, Vero C1008
  EC50: 2.13 µM
Zika virus; Zika virus, Vero C1008, Baseline response 0 %, Hill slope 1.327, Maximum measured 69.085 %, Maximum response 100 %, Minimum measured 18.26 %, R squared 0.744
  EC90: > 3.12 µM
